{
  "source": "patent US8802597B2",
  "about": "“Herbicidal pyrimidines” (E I du Pont de Nemours and Company, priority 2003, dated 2014)",
  "assay_in_all_cases": "Test C pre/postemergence",
  "assay_type_in_all_cases": "in vivo",
  "key": {"soybean (Glycine max)": {"tested_on": "soybean (Glycine max)", "conditions": "Glycine max; for plant injury at 31 g/ha: 31 g ai/ha; for plant injury at 62 g/ha: 62 g ai/ha; for plant injury at 125 g/ha: 125 g ai/ha; for plant injury at 250 g/ha: 250 g ai/ha", "description": "(§1) Seeds or nutlets of plant species selected from bermudagrass (Cynodon dactylon), Surinam grass (Brachiaria decumbens), cocklebur (Xanthium strumarium), corn (Zea mays), crabgrass (Digitaria sanguinalis), woolly cupgrass (Eriochloa villosa), giant foxtail (Setaria faberii), goosegrass (Eleusine indica), johnsongrass (Sorghum halepense), kochia (Kochia scoparia), lambsquarters (Chenopodium album), morningglory (Ipomoea coccinea), eastern black nightshade (Solanum ptycanthum), yellow nutsedge (Cyperus esculentus), pigweed (Amaranthus retroflexus), common ragweed (Ambrosia elatior), soybean (Glycine max), common (oilseed) sunflower (Helianthus annuus), and velvetleaf (Abutilon theophrasti) were planted and treated preemergence with test chemicals formulated in a non-phytotoxic solvent mixture which included a surfactant.\n(§2) At the same time, plants selected from these crop and weed species and also winter barley (Hordeum vulgare), blackgrass (Alopecurus myosuroides), canarygrass (Phalaris minor), chickweed (Stellaria media), downy brome (Bromus tectorum), green foxtail (Setaria viridis), Italian ryegrass (Lolium multiflorum), wheat (Triticum aestivum), wild oat (Avena fatua) and windgrass (Apera spica-venti) were treated with postemergence applications of some of the test chemicals formulated in the same manner. Plants ranged in height from 2 to 18 cm (1- to 4-leaf stage) for postemergence treatments. Plant species in the flooded paddy test consisted of rice (Oryza sativa), umbrella sedge (Cyperus difformis), duck salad (Heteranthera limosa) and barnyardgrass (Echinochloa crus-galli) grown to the 2-leaf stage for testing. Treated plants and controls were maintained in a greenhouse for 12 to 14 days, after which time all species were compared to controls and visually evaluated. Plant response ratings, summarized in Table C, are based on a scale of 0 to 100 where 0 is no effect and 100 is complete control. A dash (-) response means no test result."}, "kochia (Kochia scoparia)": {"tested_on": "kochia (Kochia scoparia)", "conditions": "Bassia scoparia; for pest or weed control at 31 g/ha: 31 g ai/ha; for pest or weed control at 62 g/ha: 62 g ai/ha; for pest or weed control at 125 g/ha: 125 g ai/ha; for pest or weed control at 250 g/ha: 250 g ai/ha", "description": "as §1, §2"}, "[1]": {"tested_on": "common (oilseed) sunflower (Helianthus annuus)", "conditions": "Helianthus annuus, pre-emergence, Preemergence, read-out: Plant response rating, Sunflower", "description": "as §1, §2"}, "[2]": {"tested_on": "pigweed (Amaranthus retroflexus)", "conditions": "Amaranthus retroflexus; for pest or weed control at 31 g/ha: 31 g ai/ha; for pest or weed control at 62 g/ha: 62 g ai/ha; for pest or weed control at 125 g/ha: 125 g ai/ha; for pest or weed control at 250 g/ha: 250 g ai/ha", "description": "as §1, §2"}, "[3]": {"tested_on": "Surinam grass (Brachiaria decumbens)", "conditions": "Urochloa decumbens; for pest or weed control at 125 g/ha: 125 g ai/ha; for pest or weed control at 31 g/ha: 31 g ai/ha; for pest or weed control at 62 g/ha: 62 g ai/ha; for pest or weed control at 250 g/ha: 250 g ai/ha", "description": "as §1, §2"}, "[4]": {"tested_on": "yellow nutsedge (Cyperus esculentus)", "conditions": "Cyperus; for pest or weed control at 31 g/ha: 31 g ai/ha; for pest or weed control at 62 g/ha: 62 g ai/ha; for pest or weed control at 125 g/ha: 125 g ai/ha; for pest or weed control at 250 g/ha: 250 g ai/ha", "description": "as §1, §2"}, "[5]": {"conditions": "post-emergence, Postemergence, scale 0 to 100 (0 no effect, 100 complete control), read-out: Soybean plant response rating"}, "[6]": {"conditions": "pre-emergence, Preemergence, scale 0 to 100, 0 no effect, 100 complete control, read-out: Plant response rating, Soybean"}, "[7]": {"conditions": "pre-emergence, Preemergence, scale 0 to 100, read-out: Plant response rating, Soybean"}, "[8]": {"conditions": "post-emergence, Postemergence, scale 0 to 100 (0 no effect, 100 complete control), read-out: Kochia plant response rating"}, "[9]": {"conditions": "pre-emergence, Preemergence, scale 0 to 100, 0 no effect, 100 complete control, read-out: Plant response rating, Kochia"}, "[10]": {"conditions": "pre-emergence, Preemergence, scale 0 to 100, read-out: Plant response rating, Kochia"}, "[11]": {"conditions": "post-emergence, Postemergence, scale 0 to 100 (0 no effect, 100 complete control), read-out: Pigweed plant response rating"}, "[12]": {"conditions": "pre-emergence, Preemergence, scale 0 to 100, 0 no effect, 100 complete control, read-out: Plant response rating, Pigweed"}, "[13]": {"conditions": "pre-emergence, Preemergence, scale 0 to 100, read-out: Plant response rating, Pigweed"}, "[14]": {"conditions": "post-emergence, Postemergence, scale 0 to 100 (0 no effect, 100 complete control), read-out: Surinam Grass plant response rating"}, "[15]": {"conditions": "pre-emergence, Preemergence, scale 0 to 100, 0 no effect, 100 complete control, read-out: Plant response rating, Surinam Grass"}, "[16]": {"conditions": "pre-emergence, Preemergence, scale 0 to 100, read-out: Plant response rating, Surinam Grass"}, "[17]": {"conditions": "post-emergence, Postemergence, scale 0 to 100 (0 no effect, 100 complete control), read-out: Nutsedge, Yellow plant response rating"}, "[18]": {"conditions": "pre-emergence, Preemergence, scale 0 to 100, 0 no effect, 100 complete control, read-out: Plant response rating, Nutsedge, Yellow"}, "[19]": {"conditions": "pre-emergence, Preemergence, scale 0 to 100, read-out: Plant response rating, Nutsedge, Yellow"}},
  "note": "Read-outs that look alike come from different tables or passages of the source.",
  "data": [
    {"molecule": "COC(=O)c1nc(C2CC2)nc(N)c1Br", "note": "[Compound 2, methyl 6-amino-5-bromo-2-cyclopropyl-4-pyrimidinecarboxylate]", "values": [
      {"measurement": "plant injury at 31 g/ha", "setting": "soybean (Glycine max); post-emergence, Postemergence, read-out: Plant response rating (scale of 0 to 100), Soybean", "value": 100, "unit": "%"},
      {"measurement": "plant injury at 62 g/ha", "setting": "soybean (Glycine max); [5]", "value": 100, "unit": "%"},
      {"measurement": "plant injury at 125 g/ha", "setting": "soybean (Glycine max); [5]", "value": 100, "unit": "%"},
      {"measurement": "plant injury at 250 g/ha", "setting": "soybean (Glycine max); post-emergence, Postemergence, scale 0 to 100, read-out: Plant response rating, Soybean", "value": 100, "unit": "%"},
      {"measurement": "plant injury at 31 g/ha", "setting": "soybean (Glycine max); [6]", "value": 15, "unit": "%"},
      {"measurement": "plant injury at 62 g/ha", "setting": "soybean (Glycine max); [6]", "value": 75, "unit": "%"},
      {"measurement": "plant injury at 125 g/ha", "setting": "soybean (Glycine max); [7]", "value": 90, "unit": "%"},
      {"measurement": "plant injury at 250 g/ha", "setting": "soybean (Glycine max); [7]", "value": 100, "unit": "%"},
      {"measurement": "pest or weed control at 31 g/ha", "setting": "kochia (Kochia scoparia); post-emergence, Postemergence, read-out: Plant response rating (scale of 0 to 100), Kochia", "value": 85, "unit": "%"},
      {"measurement": "pest or weed control at 62 g/ha", "setting": "kochia (Kochia scoparia); [8]", "value": 95, "unit": "%"},
      {"measurement": "pest or weed control at 125 g/ha", "setting": "kochia (Kochia scoparia); [8]", "value": 95, "unit": "%"},
      {"measurement": "pest or weed control at 250 g/ha", "setting": "kochia (Kochia scoparia); post-emergence, Postemergence, scale 0 to 100, read-out: Plant response rating, Kochia", "value": 100, "unit": "%"},
      {"measurement": "pest or weed control at 31 g/ha", "setting": "kochia (Kochia scoparia); [9]", "value": 75, "unit": "%"},
      {"measurement": "pest or weed control at 62 g/ha", "setting": "kochia (Kochia scoparia); [9]", "value": 90, "unit": "%"},
      {"measurement": "pest or weed control at 125 g/ha", "setting": "kochia (Kochia scoparia); [10]", "value": 95, "unit": "%"},
      {"measurement": "pest or weed control at 250 g/ha", "setting": "kochia (Kochia scoparia); [10]", "value": 100, "unit": "%"},
      {"measurement": "pest or weed control at 31 g/ha", "setting": "[1]; 31 g ai/ha, scale 0 to 100, 0 no effect, 100 complete control", "value": 20, "unit": "%"},
      {"measurement": "pest or weed control at 62 g/ha", "setting": "[1]; 62 g ai/ha, scale 0 to 100, 0 no effect, 100 complete control", "value": 100, "unit": "%"},
      {"measurement": "pest or weed control at 125 g/ha", "setting": "[1]; 125 g ai/ha, scale 0 to 100", "value": 100, "unit": "%"},
      {"measurement": "pest or weed control at 250 g/ha", "setting": "[1]; 250 g ai/ha, scale 0 to 100", "value": 100, "unit": "%"},
      {"measurement": "pest or weed control at 31 g/ha", "setting": "[2]; post-emergence, Postemergence, read-out: Plant response rating (scale of 0 to 100), Pigweed", "value": 65, "unit": "%"},
      {"measurement": "pest or weed control at 62 g/ha", "setting": "[2]; [11]", "value": 80, "unit": "%"},
      {"measurement": "pest or weed control at 125 g/ha", "setting": "[2]; [11]", "value": 95, "unit": "%"},
      {"measurement": "pest or weed control at 250 g/ha", "setting": "[2]; post-emergence, Postemergence, scale 0 to 100, read-out: Plant response rating, Pigweed", "value": 100, "unit": "%"},
      {"measurement": "pest or weed control at 31 g/ha", "setting": "[2]; [12]", "value": 90, "unit": "%"},
      {"measurement": "pest or weed control at 62 g/ha", "setting": "[2]; [12]", "value": 95, "unit": "%"},
      {"measurement": "pest or weed control at 125 g/ha", "setting": "[2]; [13]", "value": 95, "unit": "%"},
      {"measurement": "pest or weed control at 250 g/ha", "setting": "[2]; [13]", "value": 100, "unit": "%"},
      {"measurement": "pest or weed control at 125 g/ha", "setting": "[3]; [14]", "value": 65, "unit": "%"},
      {"measurement": "pest or weed control at 31 g/ha", "setting": "[3]; post-emergence, Postemergence, read-out: Plant response rating (scale of 0 to 100), Surinam Grass", "value": 0, "unit": "%"},
      {"measurement": "pest or weed control at 62 g/ha", "setting": "[3]; [14]", "value": 55, "unit": "%"},
      {"measurement": "pest or weed control at 250 g/ha", "setting": "[3]; post-emergence, Postemergence, scale 0 to 100, read-out: Plant response rating, Surinam Grass", "value": 70, "unit": "%"},
      {"measurement": "pest or weed control at 31 g/ha", "setting": "[3]; [15]", "value": 0, "unit": "%"},
      {"measurement": "pest or weed control at 62 g/ha", "setting": "[3]; [15]", "value": 0, "unit": "%"},
      {"measurement": "pest or weed control at 125 g/ha", "setting": "[3]; [16]", "value": 0, "unit": "%"},
      {"measurement": "pest or weed control at 250 g/ha", "setting": "[3]; [16]", "value": 0, "unit": "%"},
      {"measurement": "pest or weed control at 31 g/ha", "setting": "[4]; post-emergence, Postemergence, read-out: Plant response rating (scale of 0 to 100), Nutsedge, Yellow", "value": 0, "unit": "%"},
      {"measurement": "pest or weed control at 62 g/ha", "setting": "[4]; [17]", "value": 0, "unit": "%"},
      {"measurement": "pest or weed control at 125 g/ha", "setting": "[4]; [17]", "value": 0, "unit": "%"},
      {"measurement": "pest or weed control at 250 g/ha", "setting": "[4]; post-emergence, Postemergence, scale 0 to 100, read-out: Plant response rating, Nutsedge, Yellow", "value": 20, "unit": "%"},
      {"measurement": "pest or weed control at 31 g/ha", "setting": "[4]; [18]", "value": 0, "unit": "%"},
      {"measurement": "pest or weed control at 62 g/ha", "setting": "[4]; [18]", "value": 0, "unit": "%"},
      {"measurement": "pest or weed control at 125 g/ha", "setting": "[4]; [19]", "value": 0, "unit": "%"},
      {"measurement": "pest or weed control at 250 g/ha", "setting": "[4]; [19]", "value": 0, "unit": "%"}
    ]}
  ]
}
